US8697033B2, “Modified pyrazine derivatives and uses thereof” (Medibeacon, LLC, priority 2008, dated 2014)
Marks after values point to notes of the source that are not given here.

Experiments:
[1] = Invasive pharmacokinetic (PK) studies (plasma concentration by HPLC); type: in vivo, Sprague-Dawley rats; conditions: rat, 1 mL of 2 mM solution i.v., plasma samples 0-120 min, mean ± SEM; for clearance: male, Sprague-Dawley, iv
Method: 3.6. Invasive pharmacokinetic (PK) studies. Male Sprague-Dawley rats (330-380 g) are anesthetized by Inactin (I.P.). Rats are surgically instrumented with a trachea tube (PE-190) to facilitate breathing and femoral artery and vein catheters (PE-50 filled with 20 units/mL heparinized saline) for blood sampling and drug administration respectively. After administration of 1 mL of a 2 mM solution of agent, approximately 200 μL of blood is sampled and placed into a heparinized tube (Microtainer Brand Tube w/Lithium Heparin, BD 365971) at 0, 1, 6, 12, 18, 30, 45, 60, 90, 120 min. The concentration of compound in each centrifuged plasma sample is determined via HPLC analysis using a set of external calibration standards and fluorescence detection. The resulting pharmacokinetic parameters of the compound are analyzed using WinNonLin pharmacokinetic modeling software (Pharsight, Mountain View, Calif.). This method is used to detect renally excretable compounds of the invention and FIG. 8 provides a plot illustrating invasive PK (plasma concentration) as a function of time following delivery of a renally excretable compound.

[2] = Photophysical properties (excitation and emission maxima in PBS); type: physicochemical; conditions: 10 μM solution in PBS
Method: 3.2. Photophysical properties and protein binding. In general, renally excretable compounds are dissolved in PBS buffer to form a 2 mM stock solution. The UV absorbance properties are determined on a 100 μM solution in PBS using a UV-3101PC UV-Vis-NIR Scanning spectrophotometer system from Shimadzu. The fluorescence properties (λex, λem, and CPS at λem) are determined on a 10 μM solution in PBS using a Fluorolog-3 spectrofluorometer system from Jobin Yvon Horiba. The percent plasma protein binding are determined on a 20 μM compound solution in rat plasma incubated at 37° C. for 1 h. The separation of free from bound is made using an Amicon Centrifree YM-30 device (Regenerated Cellulose 30,000 MWCO) and a Z400K Refrigerated Universal Centrifuge from Hermle. The concentration of protein-free is determined via HPLC analysis using a set of external calibration standards and fluorescence detection.

[3] = Non-invasive optical pharmacokinetic studies (fluorescence at the ear); type: in vivo, Sprague-Dawley rats; conditions: rat, 1 mL of 2 mM solution into tail vein, fluorescence monitored at the ear; mean ± SEM
Method: 3.4. Non-Invasive optical pharmacokinetic studies. Male Sprague-Dawley rats (330-380 g) are anesthetized by Inactin (I.P.) or 2% Isoflurane gas anesthesia delivered by a small rodent gas anesthesia machine (RC2, Vetequip, Pleasanton, Calif.). The animals are placed on a heated board where temperature is maintained between 36-38° C. One ear lobe is glued flat to a glass slide positioned approximately 2 mm beneath a fiber optic bundle for recording fluorescence from a test compound passing through the ear. After a 100 second baseline recording, 1 mL of a 2 mM solution is injected into the tail-vein of the rat and the fluorescence signal corresponding to plasma and tissue distribution and subsequent renal clearance of the compound is monitored at the ear. The pharmacokinetic parameters of the compounds are analyzed using WinNonLin pharmacokinetic modeling software (Pharsight, Mountain View, Calif.) and Microsoft (Redmond, Wash.) Excel. This method is used to detect renally excretable compounds of the invention and FIG. 6 provides a plot illustrating non-invasive in vivo fluorescence as a function of time following delivery of a renally excretable compound.
3.5. Optical monitoring apparatus and protocol. A nominal 473 nm solid state laser source (100) is employed (Power Technology model LDCU12/7314). […]

[4] = Urine elimination studies; type: in vivo, Sprague-Dawley rats; conditions: rat, 1 mL of 2 mM in PBS by tail vein injection, 6 h post injection; mean ± SEM
Method: 3.3. Urine elimination studies. Rat urine elimination studies are conducted in either conscious or anesthetized Sprague-Dawley rats. The test compound (1 mL, 2 mM in PBS) is administered by tail vein injection into conscious, restrained rats, with subsequent collection of urine at the time points of 2, 4 and 6 h post injection. The metabolic cages are washed with water to maximize the recovery of urine discharged at each time point. Alternatively, rats are anesthetized with 100 mg/kg Inactin intraperitoneally, a trachea tube is inserted to maintain adequate respiration, and 1 mL of test compound is injected into the lateral tail vein. Rats are placed on 37° C. heating pad during the entire experiment. At 6 h post injection, the abdomen is opened, and the urine is removed from the bladder using a 21 gauge needle and a 3 cc syringe. Quantitation of each compound in urine is performed via HPLC analysis using a set of external calibration standards and fluorescence detection. The percent recovery of compound in urine at each time point is calculated based on the balance of mass.

clearance [1]	Plasma PK Clearance T1/2β [1]	Photophysical Properties Emission λmax [2]	Photophysical Properties Excitation λmax [2]	Tissue clearance (Optical) T1/2β [3]	Percent in Urine (6 hrs) [4]	SMILES
3 ± 0.2 mL/min	21.7 ± 1.3 (3)^b min	613 nm	498 nm	–	–	CCCNc1nc(C(=O)NCCNC(=O)CCOCCOCCOCCOCCOCCOCCOCCOCCOCCOCCOCCOC)c(NCCC)nc1C(=O)NCCNC(=O)CCOCCOCCOCCOCCOCCOCCOCCOCCOCCOCCOCCOC [Compound 1, N^2,N^5-Bis(38-oxo-2,5,8,11,14,17,20,23,26,29,32,35-dodecaoxa-39-azahentetracontan-41-yl)-3,6-bis(propylamino)pyrazine-2,5-dicarboxamide]
4.3 ± 1.1 mL/min	15.2 ± 6.7 (2) min	611 nm	501 nm	20.5 ± 2.5 (3) min	85 ± 2 (3) Percent	CCCNc1nc(C(=O)NCCOCCOCCOCCOCCOCCOCCOCCOCCOCCOCCOCCOCCOCCOCCOCCOCCOCCOCCOCCOCCOCCOCCOCCOC)c(NCCC)nc1C(=O)NCCOCCOCCOCCOCCOCCOCCOCCOCCOCCOCCOCCOCCOCCOCCOCCOCCOCCOCCOCCOCCOCCOCCOCCOC [Compound 4, 3,6-Bis(propylamino)-N^2,N^5-di(2,5,8,11,14,17,20,23,26,29,32,35,38,41,44,47,50,53,56,59,62,65,68,71-tetracosaoxatriheptacontan-73-yl)pyrazine-2,5-dicarboxamide]
